Reference: ChEMBL document CHEMBL4304773, “Nitroimidazole-containing compounds and their antibacterial and antitubercular activities” (2019)
Converted amounts (≈) assume the structure as drawn.

What was measured:
Type in all cases: functional
Escherichia coli [1] = experiment: Antibacterial activity against Escherichia coli infected in mouse
Staphylococcus aureus [2] = experiment: Antibacterial activity against Staphylococcus aureus
Streptococcus pyogenes = experiment: Antibacterial activity against Streptococcus pyogenes
Staphylococcus aureus [3] = experiment: Antibacterial activity against Staphylococcus aureus ATCC 25923 after 24 hrs by NCCLS method; conditions: ATCC 25923, 24 h
Bacillus subtilis [4] = experiment: Antibacterial activity against Bacillus subtilis ATCC 530 after 24 hrs by NCCLS method; conditions: ATCC 530, 24 h
Escherichia coli [5] = experiment: Antibacterial activity against Escherichia coli ATCC 25922 after 24 hrs by NCCLS method; conditions: ATCC 25922, 24 h
Pseudomonas aeruginosa [6] = experiment: Antibacterial activity against Pseudomonas aeruginosa ATCC 27853 after 24 hrs by NCCLS method; conditions: ATCC 27853, 24 h
Escherichia coli [7] = experiment: Antibacterial activity against Escherichia coli
Pseudomonas aeruginosa [8] = experiment: Antibacterial activity against Pseudomonas aeruginosa
Enterococcus faecalis = experiment: Antibacterial activity against Enterococcus faecalis
Staphylococcus aureus [9] = experiment: Antibacterial activity against Staphylococcus aureus ATCC 25923
Staphylococcus aureus [10] = experiment: Antibacterial activity against Staphylococcus aureus ATCC 29213
Staphylococcus aureus [11] = experiment: Antibacterial activity against methicillin-resistant Staphylococcus aureus N315
Pseudomonas aeruginosa [12] = experiment: Antibacterial activity against Pseudomonas aeruginosa ATCC 27853
Acinetobacter baumannii = experiment: Antibacterial activity against Acinetobacter baumannii
Escherichia coli [13] = experiment: Antibacterial activity against Escherichia coli ATCC 25922
Klebsiella pneumoniae = experiment: Antibacterial activity against Klebsiella pneumoniae
Bacillus subtilis [14] = experiment: Antibacterial activity against Bacillus subtilis
Candida albicans = experiment: Antifungal activity against Candida albicans

CCn1cc(C(=O)OC)c(=O)c2cc(F)c(N3CCN(CCn4c([N+](=O)[O-])cnc4C)CC3)nc21
ED50 (Escherichia coli [1]): 3.5 to 13.2 mg/kg

Cc1nc([N+](=O)[O-])cn1Cc1nn(CNc2ccccc2)c(=S)o1
MIC (Staphylococcus aureus [2]): 184 to 2890 µM | MIC (Streptococcus pyogenes): 184 to 2890 µM (≈ 63.7 to 1000 µg/mL)

Cc1ccc(Oc2c(/C=N/NC(=O)Cn3c([N+](=O)[O-])cnc3C)c(C)nn2-c2ccc(C)cc2)cc1
MIC (Staphylococcus aureus [3]): 3.12 to 50 µg/mL (≈ 6.4 to 103 µM) | MIC (Bacillus subtilis [4]): 3.12 to 50 µg/mL (≈ 6.4 to 103 µM) | MIC (Escherichia coli [5]): 3.12 to 50 µg/mL (≈ 6.4 to 103 µM) | MIC (Pseudomonas aeruginosa [6]): 3.12 to 50 µg/mL (≈ 6.4 to 103 µM)

CCOC(=O)c1cn(C2CC2)c2cc(N3CCN(CCn4c([N+](=O)[O-])cnc4C)CC3)c(F)cc2c1=O
ED50 (Escherichia coli [1]): 3.5 to 13.2 mg/kg

C#CCN1CCN(c2ccc3c4c(cccc24)C(=O)N(CC(O)Cn2c([N+](=O)[O-])cnc2C)C3=O)CC1 (centres undefined)
MIC (Escherichia coli [7]): 13 to 1020 µM | MIC (Pseudomonas aeruginosa [8]): 13 to 1020 µM | MIC (Enterococcus faecalis): 13 to 1020 µM (≈ 6.53 to 513 µg/mL) | MIC (Staphylococcus aureus [9]): 13 to 1020 µM (≈ 6.53 to 513 µg/mL) | MIC (Staphylococcus aureus [10]): 13 to 1020 µM (≈ 6.53 to 513 µg/mL) | MIC (Staphylococcus aureus [11]): 13 to 1020 µM (≈ 6.53 to 513 µg/mL) | MIC (Pseudomonas aeruginosa [12]): 13 to 1020 µM (≈ 6.53 to 513 µg/mL) | MIC (Acinetobacter baumannii): 13 to 1020 µM (≈ 6.53 to 513 µg/mL) | MIC (Escherichia coli [13]): 13 to 1020 µM (≈ 6.53 to 513 µg/mL) | MIC (Klebsiella pneumoniae): 13 to 1020 µM (≈ 6.53 to 513 µg/mL)

CCn1cc(C(=O)O)c(=O)c2cc(F)c(N3CCN(CCn4c([N+](=O)[O-])cnc4C)CC3)nc21
ED50 (Escherichia coli [1]): 3.5 to 13.2 mg/kg

COc1ccc(Oc2c(/C=N/NC(=O)Cn3c([N+](=O)[O-])cnc3C)c(C)nn2-c2ccccc2)cc1
MIC (Staphylococcus aureus [3]): 3.12 to 50 µg/mL (≈ 6.37 to 102 µM) | MIC (Bacillus subtilis [4]): 3.12 to 50 µg/mL (≈ 6.37 to 102 µM) | MIC (Escherichia coli [5]): 3.12 to 50 µg/mL (≈ 6.37 to 102 µM) | MIC (Pseudomonas aeruginosa [6]): 3.12 to 50 µg/mL (≈ 6.37 to 102 µM)

Cc1ccc(-n2nc(C)c(/C=N/NC(=O)Cn3c([N+](=O)[O-])cnc3C)c2Oc2ccc(F)cc2)cc1
MIC (Staphylococcus aureus [3]): 3.12 to 50 µg/mL (≈ 6.35 to 102 µM) | MIC (Bacillus subtilis [4]): 3.12 to 50 µg/mL (≈ 6.35 to 102 µM) | MIC (Escherichia coli [5]): 3.12 to 50 µg/mL (≈ 6.35 to 102 µM) | MIC (Pseudomonas aeruginosa [6]): 3.12 to 50 µg/mL (≈ 6.35 to 102 µM)

CC(=O)N1N=C(Cn2c([N+](=O)[O-])cnc2C)OC1(C)c1ccc(Br)cc1 (centres undefined)
MIC (Staphylococcus aureus [2]): 0.25 to 0.5 µg/mL | MIC (Bacillus subtilis [14]): 0.25 to 0.5 µg/mL (≈ 0.592 to 1.18 µM) | MIC (Escherichia coli [7]): 0.25 to 0.5 µg/mL | MIC (Pseudomonas aeruginosa [8]): 0.25 to 0.5 µg/mL | MIC (Candida albicans): 0.25 to 0.5 µg/mL (≈ 0.592 to 1.18 µM)

CCCCCCN1CCN(c2ccc3c4c(cccc24)C(=O)N(CC(O)Cn2c([N+](=O)[O-])cnc2C)C3=O)CC1 (centres undefined)
MIC (Escherichia coli [7]): 13 to 1020 µM | MIC (Pseudomonas aeruginosa [8]): 13 to 1020 µM | MIC (Enterococcus faecalis): 13 to 1020 µM (≈ 7.13 to 560 µg/mL) | MIC (Staphylococcus aureus [9]): 13 to 1020 µM (≈ 7.13 to 560 µg/mL) | MIC (Staphylococcus aureus [10]): 13 to 1020 µM (≈ 7.13 to 560 µg/mL) | MIC (Staphylococcus aureus [11]): 13 to 1020 µM (≈ 7.13 to 560 µg/mL) | MIC (Pseudomonas aeruginosa [12]): 13 to 1020 µM (≈ 7.13 to 560 µg/mL) | MIC (Acinetobacter baumannii): 13 to 1020 µM (≈ 7.13 to 560 µg/mL) | MIC (Escherichia coli [13]): 13 to 1020 µM (≈ 7.13 to 560 µg/mL) | MIC (Klebsiella pneumoniae): 13 to 1020 µM (≈ 7.13 to 560 µg/mL)

CCCCCCCCN1CCN(c2ccc3c4c(cccc24)C(=O)N(CC(O)Cn2c([N+](=O)[O-])cnc2C)C3=O)CC1 (centres undefined)
MIC (Escherichia coli [7]): 13 to 1020 µM | MIC (Pseudomonas aeruginosa [8]): 13 to 1020 µM | MIC (Enterococcus faecalis): 13 to 1020 µM (≈ 7.5 to 588 µg/mL) | MIC (Staphylococcus aureus [9]): 13 to 1020 µM (≈ 7.5 to 588 µg/mL) | MIC (Staphylococcus aureus [10]): 13 to 1020 µM (≈ 7.5 to 588 µg/mL) | MIC (Staphylococcus aureus [11]): 13 to 1020 µM (≈ 7.5 to 588 µg/mL) | MIC (Pseudomonas aeruginosa [12]): 13 to 1020 µM (≈ 7.5 to 588 µg/mL) | MIC (Acinetobacter baumannii): 13 to 1020 µM (≈ 7.5 to 588 µg/mL) | MIC (Escherichia coli [13]): 13 to 1020 µM (≈ 7.5 to 588 µg/mL) | MIC (Klebsiella pneumoniae): 13 to 1020 µM (≈ 7.5 to 588 µg/mL)

CCCCCCCCCCCCN1CCN(c2ccc3c4c(cccc24)C(=O)N(CC(O)Cn2c([N+](=O)[O-])cnc2C)C3=O)CC1 (centres undefined)
MIC (Escherichia coli [7]): 13 to 1020 µM | MIC (Pseudomonas aeruginosa [8]): 13 to 1020 µM | MIC (Enterococcus faecalis): 13 to 1020 µM (≈ 8.23 to 645 µg/mL) | MIC (Staphylococcus aureus [9]): 13 to 1020 µM (≈ 8.23 to 645 µg/mL) | MIC (Staphylococcus aureus [10]): 13 to 1020 µM (≈ 8.23 to 645 µg/mL) | MIC (Staphylococcus aureus [11]): 13 to 1020 µM (≈ 8.23 to 645 µg/mL) | MIC (Pseudomonas aeruginosa [12]): 13 to 1020 µM (≈ 8.23 to 645 µg/mL) | MIC (Acinetobacter baumannii): 13 to 1020 µM (≈ 8.23 to 645 µg/mL) | MIC (Escherichia coli [13]): 13 to 1020 µM (≈ 8.23 to 645 µg/mL) | MIC (Klebsiella pneumoniae): 13 to 1020 µM (≈ 8.23 to 645 µg/mL)

Cc1ncc([N+](=O)[O-])n1CCN1CCN(c2cc3c(cc2F)c(=O)c(C(=O)O)cn3C2CC2)CC1
ED50 (Escherichia coli [1]): 2.56 to 3.88 mg/kg

Cc1nn(-c2ccccc2)c(Oc2ccc(Cl)cc2)c1/C=N/NC(=O)Cn1c([N+](=O)[O-])cnc1C
MIC (Staphylococcus aureus [3]): 3.12 to 50 µg/mL (≈ 6.32 to 101 µM) | MIC (Bacillus subtilis [4]): 3.12 to 50 µg/mL (≈ 6.32 to 101 µM) | MIC (Escherichia coli [5]): 3.12 to 50 µg/mL (≈ 6.32 to 101 µM) | MIC (Pseudomonas aeruginosa [6]): 3.12 to 50 µg/mL (≈ 6.32 to 101 µM)

Cc1ncc([N+](=O)[O-])n1CC(O)CN1C(=O)c2cccc3c(N4CCCCC4)ccc(c23)C1=O (centres undefined)
MIC (Escherichia coli [7]): 69 to 1140 µM | MIC (Pseudomonas aeruginosa [8]): 69 to 1140 µM | MIC (Enterococcus faecalis): 69 to 1140 µM (≈ 32 to 528 µg/mL) | MIC (Staphylococcus aureus [9]): 69 to 1140 µM (≈ 32 to 528 µg/mL) | MIC (Staphylococcus aureus [10]): 69 to 1140 µM (≈ 32 to 528 µg/mL) | MIC (Staphylococcus aureus [11]): 69 to 1140 µM (≈ 32 to 528 µg/mL) | MIC (Pseudomonas aeruginosa [12]): 69 to 1140 µM (≈ 32 to 528 µg/mL) | MIC (Acinetobacter baumannii): 69 to 1140 µM (≈ 32 to 528 µg/mL) | MIC (Escherichia coli [13]): 69 to 1140 µM (≈ 32 to 528 µg/mL) | MIC (Klebsiella pneumoniae): 69 to 1140 µM (≈ 32 to 528 µg/mL)

CCc1ccc(NCn2nc(Cn3cc([N+](=O)[O-])nc3C)oc2=S)cc1
MIC (Staphylococcus aureus [2]): 184 to 2890 µM | MIC (Streptococcus pyogenes): 184 to 2890 µM (≈ 68.9 to 1080 µg/mL)

NC[C@H]1O[C@H](O[C@H]2[C@H](O)[C@@H](O[C@H]3O[C@H](CO)[C@@H](O)[C@H](N)[C@H]3O)[C@H](N)C[C@@H]2N)[C@H](N)[C@@H](O)[C@@H]1O [BEKANAMYCIN]
MIC (Staphylococcus aureus [3]): 1.56 to 3.12 µg/mL (≈ 3.23 to 6.45 µM) | MIC (Bacillus subtilis [4]): 1.56 to 3.12 µg/mL (≈ 3.23 to 6.45 µM) | MIC (Escherichia coli [5]): 1.56 to 3.12 µg/mL (≈ 3.23 to 6.45 µM) | MIC (Pseudomonas aeruginosa [6]): 1.56 to 3.12 µg/mL (≈ 3.23 to 6.45 µM)

NC1CCN(c2c(F)cc3c(=O)c(C(=O)O)cn(C4CC4)c3c2Cl)C1 (centres undefined) [CLINAFLOXACIN]
MIC (Escherichia coli [7]): 5 to 88 µM | MIC (Pseudomonas aeruginosa [8]): 5 to 88 µM | MIC (Enterococcus faecalis): 5 to 88 µM (≈ 1.83 to 32.2 µg/mL) | MIC (Staphylococcus aureus [9]): 5 to 88 µM (≈ 1.83 to 32.2 µg/mL) | MIC (Staphylococcus aureus [10]): 5 to 88 µM (≈ 1.83 to 32.2 µg/mL) | MIC (Staphylococcus aureus [11]): 5 to 88 µM (≈ 1.83 to 32.2 µg/mL) | MIC (Pseudomonas aeruginosa [12]): 5 to 88 µM (≈ 1.83 to 32.2 µg/mL) | MIC (Acinetobacter baumannii): 5 to 88 µM (≈ 1.83 to 32.2 µg/mL) | MIC (Escherichia coli [13]): 5 to 88 µM (≈ 1.83 to 32.2 µg/mL) | MIC (Klebsiella pneumoniae): 5 to 88 µM (≈ 1.83 to 32.2 µg/mL)

CCn1cc(C(=O)O)c(=O)c2cc(F)c(N3CCNCC3)nc21 [ENOXACIN]
ED50 (Escherichia coli [1]): 4.22 mg/kg

OC(Cn1cncn1)(Cn1cncn1)c1ccc(F)cc1F [FLUCONAZOLE]
MIC (Staphylococcus aureus [2]): 0.25 µg/mL | MIC (Bacillus subtilis [14]): 0.25 µg/mL (≈ 0.816 µM) | MIC (Escherichia coli [7]): 0.25 µg/mL | MIC (Pseudomonas aeruginosa [8]): 0.25 µg/mL | MIC (Candida albicans): 0.25 µg/mL (≈ 0.816 µM)

NC(=O)N/N=C/c1ccc([N+](=O)[O-])o1 [NITROFURAZONE]
MIC (Staphylococcus aureus [2]): 0.25 to 0.5 µg/mL | MIC (Bacillus subtilis [14]): 0.25 to 0.5 µg/mL (≈ 1.26 to 2.52 µM) | MIC (Escherichia coli [7]): 0.25 to 0.5 µg/mL | MIC (Pseudomonas aeruginosa [8]): 0.25 to 0.5 µg/mL | MIC (Candida albicans): 0.25 to 0.5 µg/mL (≈ 1.26 to 2.52 µM)
